# Data from US3976663A, “Certain cyclopropane carboxylic acid esters of 2,3-dihyrobenzofuran-3-ols” (The Procter & Gamble Company, priority 1971, dated 1976).
# Like-named read-outs stand apart in the source and are kept apart here.
# Assays:
# houseflies [1] = assay: Housefly mortality tests, spray tower (Example IV); assay type: in vivo; conditions: for % Mortality (24 hr.): 10 second spray; for housefly mortality compared with the chrysanthemates of Table 1: equivalent amount in the test of Example IV
# Experimental: (§1) 3-Coumaranyl chrysanthemate, 5-chloro-3-coumaranyl chrysanthemate, 5-methoxy-3-coumaranyl chrysanthemate, and natural pyrethrum, respectively, were dissolved in acetone and dispersed in distilled water with Triton X-100 emulsifier. The samples were applied for a 10 second period to houseflies retained in a 2 inch × 5 inch diameter screened cage. The spray is applied from the Water's vertical spray tower operating at 10 p.s.i. and discharging about 30 ml. of material per minute through an atomizer. The spray descends through an 8 inch stainless steel cylinder to test insects below the atomizer. The insects were retained in the sprayed cages for mortality observations.
# [2] = system: Webbing clothes moth larvae; assay: Insect mortality test, wool fabric dipped in test formulation (Example VI); assay type: in vivo; conditions: 0.05 + 0.2 synergist (piperonyl butoxide) % W/V, 7 days
# From the text: (§2) All test species except the webbing clothes moth larvae were sprayed in the Water's vertical spray tower as described in Example IV. For the fabric tests, a two inch square area of wool fabric was dipped in the test formulations.
# 11 other insects = assay: Insect mortality tests, Example VI as a whole; assay type: in vivo
# Experimental: as §1, §2
# [3] = system: Black carpet beetle larvae; assay: Insect mortality test, spray tower (Example VI); assay type: in vivo; conditions: 0.05 + 0.2 synergist (piperonyl butoxide) % W/V, 7 days
# Experimental: as §1, §2
# Mexican Bean Beetle = assay: Insect mortality test, spray tower (Example VI); assay type: in vivo; conditions: 0.005 + 0.02 synergist (piperonyl butoxide) % W/V, 2 days
# Experimental: as §1, §2
# [4] = system: Adult saw toothed grain beetles; assay: Insect mortality test, spray tower (Example VI); assay type: in vivo; conditions: 0.05 + 0.2 synergist (piperonyl butoxide) % W/V, 3 days
# Experimental: as §1, §2
# Mite = assay: Insect mortality test, spray tower (Example VI); assay type: in vivo; conditions: 0.05 + 0.2 synergist (piperonyl butoxide) % W/V, 5 days
# Experimental: as §1, §2
# Adult stable flies = assay: Insect mortality test, spray tower (Example VI); assay type: in vivo; conditions: 0.05 + 0.2 synergist (piperonyl butoxide) % W/V, 1 day
# Experimental: as §1, §2
# German Cockroach = assay: Insect mortality test, spray tower (Example VI); assay type: in vivo; conditions: 0.05 + 0.2 synergist (piperonyl butoxide) % W/V, 2 days
# Experimental: as §1, §2
# Pea Aphid = assay: Insect mortality test, spray tower (Example VI); assay type: in vivo; conditions: 0.005 + 0.02 synergist (piperonyl butoxide) % W/V, 2 days
# Experimental: as §1, §2
# Southern Armyworm = assay: Insect mortality test, spray tower (Example VI); assay type: in vivo; conditions: 0.05 + 0.2 synergist (piperonyl butoxide) % W/V, 2 days
# Experimental: as §1, §2
# Adult rice weevils = assay: Insect mortality test, spray tower (Example VI); assay type: in vivo; conditions: 0.05 + 0.2 synergist (piperonyl butoxide) % W/V, 3 days
# Experimental: as §1, §2
# Adult mosquito = assay: Insect mortality test, spray tower (Example VI); assay type: in vivo; conditions: 0.05 + 0.2 synergist (piperonyl butoxide) % W/V, 1 day
# Experimental: as §1, §2
# German cockroaches = assay: Residual activity against cockroaches on treated panels (Example V); assay type: in vivo; conditions: Blattella germanica, 48 h
# From the text: (§3) 3-Coumaranyl chrysanthemate and natural pyrethrum, respectively, were formulated in deodorized kerosene to give a deposit rate of 100 milligrams per square foot of area for residual evaluation against houseflies and 200 and 400 milligrams per square foot of area for residual evaluation against German cockroaches. The formulations were uniformly applied at the rate of 8 milliliters/sq.ft. on unpainted plywood and 3.5 milliliters/sq.ft. on vinyl asbestos with a camel hair brush. Adult insects were exposed to each treated panel for one hour (houseflies) or two hours (cockroaches), transferred to clean cages, and held for mortality counts. The same treated panels were used for re-exposures after the aging period indicated.
# houseflies [5] = assay: Residual activity against houseflies on treated panels (Example V); assay type: in vivo; conditions: 100 milligrams per square foot, one hour exposure
# From the text: as §3
# [6] = Mammalian toxicity, LD50 (rat); conditions: in vivo
# [7] = 0.0025 + 0.025 PB (piperonyl butoxide) % W/V
# [8] = Musca domestica, topical, 24 h, read-out: % Mortality (24 hr.)
# [9] = 0.005 + 0.05 PB (piperonyl butoxide) % W/V
smiles,measurement,setting,value
"CC(C)=CC1C(C(=O)OC2COc3ccccc32)C1(C)C (racemic) [Example I, (±) cis,trans-3-coumaranyl chrysanthemate]",% Mortality (24 hr.),houseflies [1]; 0.00125 + 0.0125 PB (piperonyl butoxide) % W/V,28%
same,% Mortality (24 hr.),houseflies [1]; [7],93%
same,mortality at 0.00125 % strength,houseflies [1]; [8],5%
same,mortality at 0.0025 % strength,houseflies [1]; [8],6%
same,% Mortality (days),[2],100%
same,effectiveness against 11 other insects,11 other insects,effective
same,% Mortality (days),[3],40%
same,% Mortality (days),Mexican Bean Beetle,80%
same,% Mortality (days),[4],100%
same,% Mortality (days),Mite,69%
same,% Mortality (days),Adult stable flies,100%
same,% Mortality (days),German Cockroach,30%
same,% Mortality (days),Pea Aphid,65%
same,% Mortality (days),Southern Armyworm,70%
same,% Mortality (days),Adult rice weevils,100%
same,% Mortality (days),Adult mosquito,100%
same,mortality at 200 mg/sq ft,"German cockroaches; read-out: % Mortality (48 hrs.), Plywood, 200 milligrams per sq. ft., age of residue 1 day, two hours exposure",85%
same,mortality at 200 mg/sq ft,"German cockroaches; read-out: % Mortality (48 hrs.), Plywood, 200 milligrams per sq. ft., age of residue 3 days, two hours exposure",83%
same,mortality at 200 mg/sq ft,"German cockroaches; read-out: % Mortality (48 hrs.), Plywood, 200 milligrams per sq. ft., age of residue 7 days, two hours exposure",93%
same,mortality at 200 mg/sq ft,"German cockroaches; read-out: % Mortality (48 hrs.), Plywood, 200 milligrams per sq. ft., age of residue 14 days, two hours exposure",85%
same,mortality at 400 mg/sq ft,"German cockroaches; read-out: % Mortality (48 hrs.), Plywood, 400 milligrams per sq. ft., age of residue 1 day, two hours exposure",83%
same,mortality at 400 mg/sq ft,"German cockroaches; read-out: % Mortality (48 hrs.), Plywood, 400 milligrams per sq. ft., age of residue 3 days, two hours exposure",83%
same,mortality at 400 mg/sq ft,"German cockroaches; read-out: % Mortality (48 hrs.), Plywood, 400 milligrams per sq. ft., age of residue 7 days, two hours exposure",90%
same,mortality at 400 mg/sq ft,"German cockroaches; read-out: % Mortality (48 hrs.), Plywood, 400 milligrams per sq. ft., age of residue 14 days, two hours exposure",73%
same,mortality at 200 mg/sq ft,"German cockroaches; read-out: % Mortality (48 hrs.), Vinyl, 200 milligrams per sq. ft., age of residue 1 day, two hours exposure",100%
same,mortality at 200 mg/sq ft,"German cockroaches; read-out: % Mortality (48 hrs.), Vinyl, 200 milligrams per sq. ft., age of residue 3 days, two hours exposure",95%
same,mortality at 200 mg/sq ft,"German cockroaches; read-out: % Mortality (48 hrs.), Vinyl, 200 milligrams per sq. ft., age of residue 7 days, two hours exposure",70%
same,mortality at 200 mg/sq ft,"German cockroaches; read-out: % Mortality (48 hrs.), Vinyl, 200 milligrams per sq. ft., age of residue 14 days, two hours exposure",20%
same,mortality at 400 mg/sq ft,"German cockroaches; read-out: % Mortality (48 hrs.), Vinyl, 400 milligrams per sq. ft., age of residue 1 day, two hours exposure",100%
same,mortality at 400 mg/sq ft,"German cockroaches; read-out: % Mortality (48 hrs.), Vinyl, 400 milligrams per sq. ft., age of residue 3 days, two hours exposure",100%
same,mortality at 400 mg/sq ft,"German cockroaches; read-out: % Mortality (48 hrs.), Vinyl, 400 milligrams per sq. ft., age of residue 7 days, two hours exposure",100%
same,mortality at 400 mg/sq ft,"German cockroaches; read-out: % Mortality (48 hrs.), Vinyl, 400 milligrams per sq. ft., age of residue 14 days, two hours exposure",83%
same,% Mortality (24 hr.),"houseflies [5]; Plywood, age of residue 1 day",100%
same,% Mortality (24 hr.),"houseflies [5]; Plywood, age of residue 3 days",98%
same,% Mortality (24 hr.),"houseflies [5]; Plywood, age of residue 7 days",83%
same,% Mortality (24 hr.),"houseflies [5]; Vinyl, age of residue 1 day",100%
same,% Mortality (24 hr.),"houseflies [5]; Vinyl, age of residue 3 days",100%
same,% Mortality (24 hr.),"houseflies [5]; Vinyl, age of residue 7 days",59%
same,LD50,[6],> 7570 mg/kg
"CC(C)=CC1C(C(=O)OC2COc3ccc(Cl)cc32)C1(C)C (racemic) [Example II, (±) cis,trans-5-chloro-3-coumaranyl chrysanthemate]",% Mortality (24 hr.),houseflies [1]; [7],56%
same,% Mortality (24 hr.),houseflies [1]; [9],99%
same,mortality at 0.005 % strength,houseflies [1]; [8],5%
"COc1ccc2c(c1)C(OC(=O)C1C(C=C(C)C)C1(C)C)CO2 (racemic) [Example III, (±) cis, trans-5-methoxy-3-coumaranyl chrysanthemate]",% Mortality (24 hr.),houseflies [1]; [9],57%
same,% Mortality (24 hr.),houseflies [1]; 0.01 + 0.1 PB (piperonyl butoxide) % W/V,100%
same,mortality at 0.01 % strength,houseflies [1]; [8],0%
"CC1(C)C(C(=O)OC2COc3ccccc32)C1(C)C (stereo not drawn) [3-coumaranyl 2,2,3,3-tetramethylcyclopropanecarboxylate]",housefly mortality compared with the chrysanthemates of Table 1,houseflies [1],equivalent results
"CC1(C)C(C=C2CCCC2)C1C(=O)OC1COc2ccccc21 (stereo not drawn) [3-coumaranyl 3-(2,2-tetramethyleneethenyl)-2-dimethylcyclopropanecarboxylate]",housefly mortality compared with the chrysanthemates of Table 1,houseflies [1],equivalent results
"CC1(C)C(C(=O)OC2COc3ccc(Cl)cc32)C1(C)C (stereo not drawn) [5-chloro-3-coumaranyl 2,2,3,3-tetramethylcyclopropanecarboxylate]",housefly mortality compared with the chrysanthemates of Table 1,houseflies [1],equivalent results
"CC1(C)C(C=C2CCCC2)C1C(=O)OC1COc2ccc(Cl)cc21 (stereo not drawn) [5-chloro-3-coumaranyl 3-(2,2-tetramethyleneethenyl)-2,2-dimethylcyclopropanecarboxylate]",housefly mortality compared with the chrysanthemates of Table 1,houseflies [1],equivalent results
"COc1ccc2c(c1)C(OC(=O)C1C(C)(C)C1(C)C)CO2 (stereo not drawn) [5-methoxy-3-coumaranyl 2,2,3,3-tetramethylcyclopropanecarboxylate]",housefly mortality compared with the chrysanthemates of Table 1,houseflies [1],equivalent results
"COc1ccc2c(c1)C(OC(=O)C1C(C=C3CCCC3)C1(C)C)CO2 (stereo not drawn) [5-methoxy-3-coumaranyl 3-(2,2-tetramethyleneethenyl)-2,2-dimethylcyclopropanecarboxylate]",housefly mortality compared with the chrysanthemates of Table 1,houseflies [1],equivalent results
"CC1(C)C(C(=O)OC2COc3ccc([N+](=O)[O-])cc32)C1(C)C (stereo not drawn) [5-nitro-3-coumaranyl 2,2,3,3-tetramethylcyclopropanecarboxylate]",housefly mortality compared with the chrysanthemates of Table 1,houseflies [1],equivalent results
"CC1(C)C(C=C2CCCC2)C1C(=O)OC1COc2ccc([N+](=O)[O-])cc21 (stereo not drawn) [5-nitro-3-coumaranyl 3-(2,2-tetramethyleneethenyl)-2-dimethylcyclopropanecarboxylate]",housefly mortality compared with the chrysanthemates of Table 1,houseflies [1],equivalent results
CC(C)=CC1C(C(=O)OC2COc3ccc([N+](=O)[O-])cc32)C1(C)C (stereo not drawn) [5-nitro-3-coumaranyl chrysanthemate],housefly mortality compared with the chrysanthemates of Table 1,houseflies [1],equivalent results
